Assay results from patent US20240000754A1, “METHODS OF TREATMENT OF LIVER FAILURE” (GENFIT, priority 2020, published 2024).

Assays:
[1] = tested on: hepatic transcriptome of mice; assay: Hepatic transcriptomic analysis (RNA-seq) in CDAA/c diet-fed mice treated with NTZ; format: in vivo; settings: NTZ 100 mg/kg/day versus CDAA/c alone, adjusted p=2.6×10-13
Method: Liver injury was induced in 5-6 week-old male C57Bl/6 mice (Janvier Labs, France) by feeding them a cholesterol (1%) supplemented choline-deficient L-amino acid-defined diet (CDAA/c) (Ssniff, Germany) for 12 weeks (n=12). Some animals received from day 1 and throughout the study CDAA/c diet supplemented with NTZ (Interchim, France) (100 mg/kg/day) (n=8). Mice receiving choline supplemented L-amino acid-defined (CSAA) diet served as additional controls (n=6).
Total RNA was isolated from mice livers using Nucleospin® 96 RNA kit (ref 740709.4, Macherey Nagel, France) (n=5). Upon measurement of RNA samples concentration by Multiskan™ GO spectrophotometer (Thermo Scientific, France), the quality was assessed using 2100 Bioanalyser from Agilent (USA). […]
Then reads were aligned on the genome reference (Mus musculus GRCm38.90—GenBank assembly accession GCA_000001635.2) with rnacocktail using hisat2 v.2.1.0 as aligner with default parameters (Sahraeian et al. Nature communications 2017). […]
To identify differentially expressed genes (DE genes), we used R (version 3.4.3) and the DESEq2 library (v. 1.18.1). […] Briefly, the count matrix produced by FeatureCounts was analyzed by the DESeqDataSetFromMatrix( ) function followed by the DEseq( ) function from the DESeq2 library. […]

[2] = tested on: HepG2 cells; assay: NH4Cl-induced mortality in HepG2 cells (CytoTox-Glow dead cell protease activity); format: cell-based, human; settings: HepG2, NTZ 0-5 μM, 60 mM and 120 mM NH4Cl, 14 hours
Method: After cell adherence (10 hours), cells were washed with PBS and were incubated in the presence of 0, 60, or 120 mM of NH4Cl (Fluka, France) in DMEM without L-Glutamine and FBS for 14 hours.
Cytotoxicity was measured using CytoTox-Glow™ assay (#G9291, Promega, USA). Briefly, 100 μL of reagent was added per well, and the plates were incubated in the dark at room temperature for 15 min. The CytoTox-Glow™ Assay is a luminescent cytotoxicity assay that measures the relative number of dead cells in cell populations. Luminescence was measured using a Spark microplate reader (#30086376, Tecan, USA). The amount of luminescence (RLU) directly correlates with the percentage of cells undergoing cytotoxic stress.

[3] = tested on: TAA induced cirrhosis in rats; assay: TAA-induced cirrhosis in rats: liver function and fibrosis; format: in vivo; settings: 16 weeks TAA
[4] = tested on: cirrhotic rats after LPS injection (ACLF); assay: ACLF model: LPS injection in TAA-cirrhotic rats; format: in vivo
Method: Male Sprague Dawley rats (175-200 g) (Janvier Labs, France) received intraperitoneal injections of thioacetamide (TAA) 3 times a week at the dose of 150 mg/kg during the first week and then at 200 mg/kg during 14 weeks to induce cirrhosis. Rats were stratified to treatment groups (n=5 per group) based on mean plasma levels of fibrosis markers (alpha-2 macroglobulin and Metallopeptidase Inhibitor 1 (TIMP1)) and liver function tests (plasma total bile acid and albumin) obtained from sublingual blood sampling.
After cirrhosis induction, rats received a single intraperitoneal injection of 0.05 mg/kg lipopolysaccharide (LPS from Escherichia coli O111:64, Sigma-Aldrich) to induce ACLF, one week after TAA administration was stopped. […] Plasma were obtained from sublingual blood sampling just before sacrifice.
The concentration of total bile acids was measured using the appropriate Randox kit for Daytona Plus automate (Randox, cat #BI 3863). In the presence of Thio-NAD, the enzyme 3-alpha hydroxysteroid dehydrogenase (3-a HSD) converts bile acids to 3-keto steroids and Thio-NADH. The reaction is reversible and 3-a HSD could convert 3-keto steroids and Thio-NADH to bile acids and Thio-NAD. In the presence of excess NADH, the enzyme cycling occurs efficiently and the rate of formation of Thio-NADH is determined by measuring specific change of absorbance at 405 nm.

[5] = tested on: rats with BDL+LPS-induced ACLF; assay: Brain edema in BDL+LPS-induced ACLF in rats; format: in vivo; settings: LPS 1 μg/kg i.p., NTZ 100 mg/kg gavage just before LPS, 3 hours post-LPS
Method: BDL surgery was performed on 37 Sprague Dawley rats weighing approximately 270 g at Charles River laboratory (France). After anesthesia with isoflurane (Vetflurane, Alcyon, France), and cutaneous application of 2% lidocaine (Alcyon), a median laparotomy was performed to expose the liver and duodenum. The main bile duct was identified and dissected. After that, the bile duct was ligated in two parts: a first ligation was made in the middle of the bile duct, and the second ligation was made above the entrance of the pancreatic duct. The bile duct was then cut in the middle, to avoid recanalization.
The animals were then transferred to Genfit's animal facility (France) after a minimum of 5 days of recovery post-surgery. […] Unoperated animals were included in the study as healthy controls.
Twenty-two days after BDL surgery, acute decompensation was induced by intraperitoneal administration of 1 μg/kg LPS (Escherichia coli O111:64, Sigma-Aldrich, Germany). Four rats with BDL received phosphate buffer saline (PBS, Fisher Scientific, USA) instead of LPS to be used as BDL controls. Each animal was continuously observed following LPS injection in order to assess the degree of severity of the inflammatory response and pain. […]

[6] = tested on: rats with BDL+LPS-induced ACLF; assay: Kidney function in BDL+LPS-induced ACLF in rats; format: in vivo; settings: NTZ 100 mg/kg gavage, 3 hours post-LPS
Method: BDL surgery of rats and acute decompensation were performed as in the previous example.
Renal injury was evaluated by serum cystatin C concentrations determined by ELISA (Mouse/Rat Cystatin C Immunoassay Quantikine® ELISA, MSCTC0, R&D Systems).

[7] = tested on: mice with acetaminophen (APAP) intoxication; assay: Acetaminophen-induced acute liver failure in mice; format: in vivo; settings: APAP 300 mg/kg i.p., NTZ 50 mg/kg gavage 30 minutes before, 6 hours after APAP
Method: Acute liver failure was induced by administration of toxic dose of acetaminophen (APAP) in mice. After a 5-day acclimation period, 8 week-old C57BL/6J male mice (Janvier, France) were stratified into 3 groups of 10 mice according to their body weight. All mice were fasted overnight before the administration of 300 mg/kg APAP by intraperitoneal injection. […] Mice had free access to food and water right after APAP injection. Six hours after APAP injection, blood was collected in all mice on heparin by retro-orbital sinus punction under anesthesia. Liver injury was assessed by plasma aspartate aminotransferase (AST) determined using a Horiba Pentra 400 machine and related Pentra assay kit (Horiba France SAS, France). Animals were sacrificed 24 hours post-APAP administration by cervical dislocation, exsanguinated with saline and liver samples were collected and weighed.

[8] = tested on: rats with CCl4+LPS-induced ACLF; assay: Example 8: renal function markers in CCl4+LPS-induced ACLF in rats; format: in vivo; settings: 15 weeks CCl4 + LPS, NTZ 50 mg/kg BID 3 days, 24 h after LPS
Method: Cirrhosis decompensation often associates with alterations of kidney functions. […] Briefly, ACLF was induced by lipopolysaccharide (LPS) injection in rats with advanced liver fibrosis/cirrhosis induced by repeated carbon tetrachloride (CCl4) administrations for 15 weeks.
The protocol study included 4 phases: • 1) Pre-sensitization phase: phenobarbital (P5178, Sigma Aldrich) was added to the drinking water ([…]) of 32 4-week-old male Sprague-Dawley rats (˜200 gr, Janvier Lab) for 2 weeks in order to activate cytochrome enzymes that metabolize CCl4. • 2) Induction of liver fibrosis: chronic liver damages were induced by repeated (twice a week) oral CCl4 (ref: 289116, Sigma Aldrich; diluted in olive oil) administrations (increasing doses starting with 0.10 ml/kg, adding 0.05-0.10 ml/kg at each administration to reach 0.85 ml/kg at 7 weeks and thereafter) for up to 15 weeks, with final doses as follows:
• 3) Treatment phase: after 15 weeks of CCl4 administration, CCl4 gavage was stopped one week before LPS administration.
During the first hours following LPS administration, each animal was continuously observed in order to assess the degree of severity of the inflammatory response and pain. The appearance of the animal (change in fur, skin color), the degree of activity and vigilance (response to a stimulus, opening of the eyelids, activity . . . ), gait and attitude were monitored. Any animal showing evident signs of suffering and close to death was euthanized. […] All surviving animals were euthanized 24 h after LPS challenge for plasma and tissue analyses. […]
Renal injury was evaluated by plasma creatinine, urea and cystatin C concentrations. Plasma creatinine and urea concentrations were measured using the appropriate Randox kits (CR 8316, UR 8334, respectively) for Daytona plus automate (Randox, cat #BR 8377) using the manufacturer instructions. Plasma cystatin C concentration was determined by ELISA (Mouse/Rat Cystatin C Immunoassay Quantikine® ELISA, MSCTC0, R&D Systems).

[9] = tested on: rats with CCl4+LPS-induced ACLF; assay: Example 9: CCl4+LPS-induced acute-on-chronic liver failure in rats; format: in vivo
Method: This study included 4 phases: • 1) Pre-sensitization phase: phenobarbital ([…]) (ref P5178-25G, Sigma-Aldrich) was added to the drinking water of 4-week-old male Sprague-Dawley rats (˜200 g) for 2 weeks prior to CCl4 administration • 2) Induction phase: hepatic severe fibrosis was induced by repeated oral tetrachlorure (CCl4) administrations (twice a week, increasing doses from 0.10 to 0.85 ml/kg, twice weekly) for 10 or 15 weeks, with the same protocol as the protocol described in example 8. • 3) Treatment phase: after 15 weeks of CCl4 administrations, gavage was stopped one week before LPS administration. […] A last dose (50 mg/kg) was administered 30 minutes just before ACLF induction. • 4) ACLF induction: LPS was administrated i.p. at 0.03 mg/kg.
LPS solution (Escherichia coli O111:64, Sigma-Aldrich, Germany) was prepared under a microbiological safety cabinet and was dissolved in phosphate buffer saline (PBS) at 15 μg/mL, aliquoted and frozen until the day of experiment. LPS was administered at 2 m L/kg to the rats.
38 male Sprague-Dawley rats (Janvier Labs, France) have been allocated to this study. Animals had ad libitum access to water and chow diet (ref E15000-04, Ssniff, Germany) all along the study. After 9 weeks of CCl4 administration, animals were randomly allocated to 2 groups according to ammonia and albumin plasmatic levels (in order to have similar means in the two groups).
ACLF was evaluated, at the end of the study, by biochemical analyses of hepatic and renal injury or function biomarkers.
At the end of the study, blood was collected by sublingual vein puncture under light isoflurane anesthesia and transferred to ethylenediamine tetra-acetic acid (EDTA), serum-gel, and lithium heparin tubes. EDTA and lithium heparin tubes containing blood were rapidly centrifuged and the plasma fraction was collected. Plasma aliquot of heparin lithium were snap frozen in liquid nitrogen and stored at −80° C., EDTA-plasma aliquots were stored at −20° C. and serum-gel tubes were kept at room temperature for 30 minutes, centrifuged and stored at −20° C.
Experimental results are expressed as mean±standard deviation and plotted as bar graphs. Comparison between groups was tested using a Student T test for all variables that follows a normal distribution (#: p<0.05; ##: p<0.01; ###: p<0.001). A Welsh test was applied in case of different variances between groups (3a: p<0.05; cm: p<0.01; man: p<0.001). A log-transformation was applied for plasma ALT and AST in all samples to obtain a normal data distribution. For other non-normally distributed variables, a non-parametric Mann-Whitney test was applied ($: p<0.05; $$: p<0.01; $$$: p<0.001). Differences to the Ctrl week 10 (W10) group are notified, if not otherwise specified.

[10] = NTZ 30 mg/kg/day in diet for last 4 weeks, versus TAA control

## CC(=O)Oc1ccccc1C(=O)Nc1ncc([N+](=O)[O-])s1 [NTZ, nitazoxanide]
[1]
  Induction of GluI expression: 1.6 fold
[2]
  Mortality rate (dead cell protease activity): reduced the mortality rate in a dose-dependent manner
[3]; NTZ 30 mg/kg/day for last 4 weeks, TAA control 7.74±0.38%, p=0.77
  Collagen proportionate area: 7.53±0.64%
[3]; [10]
  Plasma albumin: rescued
  Plasma total bilirubin: drastically decreased
[4]; TAA-cirrhotic rats after ACLF induction by LPS, versus vehicle
  Circulating (plasma total) bile acids level: reduced
[4]; TAA-cirrhotic rats, LPS 0.05 mg/kg i.p., NTZ oral gavage 50 mg/kg/day BID 3 days plus last dose 30 minutes before LPS
  Delay of time to death: 1 h
[5]
  Brain water (brain edema, % of water contained in brain): remarkably reduced
[6]
  Serum cystatin C: drastically reduced cystatin C, almost to the level of healthy controls
[7]
  Plasma AST: greatly reduced AST to a level similar to that with NAC
[8]
  Plasma creatinine: restoring creatinine, urea and cystatin C levels to the levels of the olive oil controls
  Plasma cystatin C: restoring creatinine, urea and cystatin C levels to the levels of the olive oil controls
  Plasma urea: restoring creatinine, urea and cystatin C levels to the levels of the olive oil controls
[9]; rats, 15 weeks CCl4 + LPS 0.03 mg/kg i.p., NTZ 50 mg/kg BID 3 days, same in vehicle group
  Survival 24 h after LPS injection: 60%
[9]; rats, CCl4 15 weeks and LPS, p=0.04
  Reduction of serum IFNγ: 56%
[9]; rats, CCl4 + LPS, NTZ 50 mg/kg BID 3 days, same in vehicle group (4/10 rats)
  Mortality over 24 hours: 40%
[9]; surviving rats 24 hours post-LPS, LPS-induced renal impairment, p=0.002
  Change of plasma urea: −92%
[9]; surviving rats 24 hours post-LPS, LPS-induced renal impairment, p=0.009
  Change of plasma creatinine: −102%
[9]; surviving rats 24 hours post-LPS, LPS-induced renal impairment, p=0.02
  Change of plasma cystatin C: −166%
[9]; surviving rats 24 hours post-LPS, NTZ versus vehicle, p=0.005
  Reduction of plasma AST: 87%
[9]; surviving rats 24 hours post-LPS, NTZ versus vehicle, p=0.007
  Reduction of plasma ALT: 80%
[9]; surviving rats 24 hours post-LPS, plasma, p=0.02
  Reduction of total bilirubin: 80%
[9]; surviving rats 24 hours post-LPS, plasma, p=0.04
  Restoration of albumin production: 95%
[9]; surviving rats 24 hours post-LPS, LPS vehicle 11.2 U/I
  Plasma GGT level: < 6.15 U/I
